Assay results from US9540391B2, “Isomannide derivatives as inhibitors of soluble epoxide hydrolase” (SANOFI, priority 2013, dated 2017).
Structures can show the parent of a compound that is named as a salt.

Biological target: T1, recombinant sEH (Homo sapiens, UniProt P34913)
T1 construct: made in house; host or cells: Sf9 insect cells
T1 sequence (P34913 1-555): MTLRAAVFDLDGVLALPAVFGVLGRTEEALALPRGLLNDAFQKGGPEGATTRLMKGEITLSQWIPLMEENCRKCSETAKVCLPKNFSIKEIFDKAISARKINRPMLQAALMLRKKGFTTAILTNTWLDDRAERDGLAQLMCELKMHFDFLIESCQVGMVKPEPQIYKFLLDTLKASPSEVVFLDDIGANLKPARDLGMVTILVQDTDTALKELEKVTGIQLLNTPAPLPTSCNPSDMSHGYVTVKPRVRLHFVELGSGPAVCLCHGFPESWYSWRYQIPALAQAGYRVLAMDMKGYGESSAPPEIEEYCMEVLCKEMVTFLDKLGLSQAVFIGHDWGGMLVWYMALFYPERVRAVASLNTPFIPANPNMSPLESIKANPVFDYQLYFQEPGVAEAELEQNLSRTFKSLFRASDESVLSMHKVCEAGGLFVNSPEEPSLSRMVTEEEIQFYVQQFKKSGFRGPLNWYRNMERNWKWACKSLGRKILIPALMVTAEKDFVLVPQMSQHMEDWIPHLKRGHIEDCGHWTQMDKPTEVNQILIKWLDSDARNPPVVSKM
Experiment: biochemical screening assay for inhibition of soluble epoxide hydrolase (fluorometric, Phome substrate)
How it was run: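 Reading fluorescence before substrate addition and after completion corrected for autofluorescence. Reaction: 5 μM Phome, 2 nM recombinant human sEH (Sf9-expressed), compound 0.0001–10 μM, 25 mM Hepes with 0.01% albumin, 15 min pre-incubation then 60 min at 30 °C; IC50 derived from % inhibition.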

SMILES	IC50 [nM]
Cc1ncccc1O[C@H]1CO[C@H]2[C@@H]1OC[C@@H]2NC(=O)NCC1CCC(=O)N1C (stereo partly drawn) [Example 255, 1-(1-Methyl-5-oxo-pyrrolidin-2-ylmethyl)-3-[(3S,3aR,6S,6aS)-6-(2-methyl-pyridin-3-yloxy)-hexahydro-furo[3,2-b]furan-3-yl]-urea]	545
Cc1ncccc1O[C@H]1CO[C@H]2[C@@H]1OC[C@@H]2NC(=O)NCc1ccc(Cl)s1 [Example 208, 1-(5-Chloro-thiophen-2-ylmethyl)-3-[(3S,3aR,6S,6aS)-6-(2-methyl-pyridin-3-yloxy)-hexahydro-furo[3,2-b]furan-3-yl]-urea]	15
Cc1ncccc1O[C@H]1CO[C@H]2[C@@H]1OC[C@@H]2NC(=O)NCC1(O)CCCCC1 [Example 182, 1-(1-Hydroxy-cyclohexylmethyl)-3-[(3S,3aR,6S,6aS)-6-(2-methyl-pyridin-3-yloxy)-hexahydro-furo[3,2-b]furan-3-yl]-urea]	96
NC[C@H]1CO[C@H]2[C@@H]1OC[C@@H]2NC(=O)NC1CCCCC1 [Example 8, 1-((3S,3aR,6S,6aR)-6-aminomethyl-hexahydro-furo[3,2-b]furan-3-yl)-3-cyclohexyl-urea; trifluoroacetate]	14500
COC(=O)c1ccc2cc(O[C@H]3CO[C@H]4[C@@H]3OC[C@@H]4NC(=O)NC3CCCCC3)ccc2c1 [Example 148, 6-[(3S,3aS,6S,6aR)-6-(3-Cyclohexyl-ureido)-hexahydro-furo[3,2-b]furan-3-yloxy]-naphthalene-2-carboxylic acid methyl ester]	3
O=C(N[C@H]1CO[C@H]2[C@@H]1OC[C@@H]2Oc1ccc(F)cc1)N[C@H]1CCC[C@@H]1OCc1ccccc1 [Example 153, 1-((1S,2S)-2-Benzyloxy-cyclopentyl)-3-[(3S,3aR,6S,6aS)-6-(4-fluoro-phenoxy)-hexahydro-furo[3,2-b]furan-3-yl]-urea]	62
Cc1ncccc1O[C@H]1CO[C@H]2[C@@H]1OC[C@@H]2NC(=O)NCCN1CCCC1=O [Example 236, 1-[(3S,3aR,6S,6aS)-6-(2-Methyl-pyridin-3-yloxy)-hexahydro-furo[3,2-b]furan-3-yl]-3-[2-(2-oxo-pyrrolidin-1-yl)-ethyl]-urea]	3840
O=C(NC1CCCCC1)N[C@H]1CO[C@H]2[C@@H]1OC[C@@H]2/C=C\c1ccccc1 [Example 319, 1-Cyclohexyl-3-[(3S,3aR,6S,6aR)-6-((Z)-styryl)-hexahydro-furo[3,2-b]furan-3-yl]-urea]	17
CC1CSc2c(O[C@H]3CO[C@H]4[C@@H]3OC[C@@H]4NC(=O)NC3CCCCC3)csc21 (stereo partly drawn) [Example 145, 1-Cyclohexyl-3-[(3S,3aR,6S,6aS)-6-(6-methyl-5,6-dihydro-thieno[3,2-b]thiophen-3-yloxy)-hexahydro-furo[3,2-b]furan-3-yl]-urea]	14
Cc1cc(C)c(O[C@H]2CO[C@H]3[C@@H]2OC[C@@H]3NC(=O)NC2CCCCC2)cn1 [Example 39, 1-Cyclohexyl-3-[(3S,3aR,6S,6aS)-6-(4,6-dimethyl-pyridin-3-yloxy)-hexa-hydro-furo[3,2-b]furan-3-yl]-urea]	2
Cc1cccc(CNC(=O)N[C@H]2CO[C@@H]3[C@@H]2OC[C@H]3/C=C\c2ccccc2)c1 [Example 327, 1-(3-Methyl-benzyl)-3-[(3S,3aR,6R)-6-((S)-(Z)-styryl)-hexahydro-furo[3,2-b]furan-3-yl]-urea]	98
Cc1ccc(S[C@H]2CO[C@H]3[C@@H]2OC[C@@H]3NC(=O)NC2CCCCC2)nc1 [Example 59, 1-Cyclohexyl-3-[(3S,3aR,6S,6aS)-6-(5-methyl-pyridin-2-ylsulfanyl)-hexa-hydro-furo[3,2-b]furan-3-yl]-urea]	2
Cc1ncccc1O[C@H]1CO[C@H]2[C@@H]1OC[C@@H]2NC(=O)NC1CCCN(C(=O)C2CC2)C1 (stereo partly drawn) [Example 85, 1-(1-Cyclopropanecarbonyl-piperidin-3-yl)-3-[(3S,3aR,6S,6aS)-6-(2-methyl-pyridin-3-yloxy)-hexahydro-furo[3,2-b]furan-3-yl]-urea]	20
O=C(NC1CCCCC1)N[C@H]1CO[C@H]2[C@@H]1OC[C@@H]2Oc1ccc(F)c(Cl)c1 [Example 29, 1-[(3S,3aR,6S,6aS)-6-(3-Chloro-4-fluoro-phenoxy)-hexahydro-furo[3,2-b]furan-3-yl]-3-cyclohexyl-urea]	2
Cc1ncccc1O[C@H]1CO[C@H]2[C@@H]1OC[C@@H]2NC(=O)N[C@@H]1C[C@H](C)CC[C@H]1C(C)C [Example 174, 1-((1R,2S,5R)-2-Isopropyl-5-methyl-cyclohexyl)-3-[(3S,3aR,6S,6aS)-6-(2-methyl-pyridin-3-yloxy)-hexa-hydro-furo[3,2-b]furan-3-yl]-urea]	31
O=C(Nc1cccc(C(F)(F)F)c1)N[C@H]1CO[C@@H]2[C@@H](CCc3ccccc3)CO[C@@H]21 [Example 368, 1-((3S,3aR,6S,6aR)-6-Phenethyl-hexahydro-furo[3,2-b]furan-3-yl)-3-(3-trifluoromethyl-phenyl)-urea]	68
Cc1ncccc1O[C@H]1CO[C@H]2[C@@H]1OC[C@@H]2NC(=O)NC1CCCCC1C (stereo partly drawn) [Example 259, 1-(2-Methyl-cyclohexyl)-3-[(3S,3aR,6S,6aS)-6-(2-methyl-pyridin-3-yloxy)-hexahydro-furo[3,2-b]furan-3-yl]-urea]	5
Cc1ncccc1O[C@H]1CO[C@H]2[C@@H]1OC[C@@H]2NC(=O)NC1CCCCC1(F)F (stereo partly drawn) [Example 277, 1-(2,2-Difluoro-cyclohexyl)-3-[(3S,3aR,6S,6aS)-6-(2-methyl-pyridin-3-yloxy)-hexahydro-furo[3,2-b]furan-3-yl]-urea]	2
COc1cc(NC(=O)NC2COC3C(C=Cc4ccsc4)COC23)cc(OC)c1 [Example 335, 1-(3,5-Dimethoxy-phenyl)-3-[(3S,3aR,-6S,6aR)-6-((Z)-2-thiophen-3-yl-vinyl)-hexahydro-furo[3,2-b]furan-3-yl]-urea]	665
O=C(NC1CCCCC1)N[C@H]1CO[C@H]2[C@@H]1OC[C@@H]2Oc1ccc(-c2ccccc2)cc1 [Example 105, 1-[(3S,3aR,6S,6aS)-6-(Biphenyl-4-yloxy)-hexahydro-furo[3,2-b]furan-3-yl]-3-cyclohexyl-urea]	7
O=C(NC1CCCCC1)N[C@H]1CO[C@H]2[C@@H]1OC[C@@H]2Oc1ccc(Cl)nc1 [Example 51, 1-[(3S,3aR,6S,6aS)-6-(6-Chloro-pyridin-3-yloxy)-hexahydro-furo[3,2-b]furan-3-yl]-3-cyclohexyl-urea]	8
COc1cc(NC(=O)NC2COC3C(CCc4ccsc4)COC23)cc(OC)c1 [Example 361, 1-(3,5-Dimethoxy-phenyl)-3-[(3S,3aR,-6R)-6-((S)-2-thiophen-3-yl-ethyl)-hexahydro-furo[3,2-b]furan-3-yl]-urea]	39
O=C(NC1CCCCC1)N[C@H]1CO[C@H]2[C@@H]1OC[C@@H]2Oc1ccccc1CNCC1CCCO1 (stereo partly drawn) [Example 136, 1-Cyclohexyl-3-[(3S,3aR,6S,6aS)-6-(2-{[(tetrahydro-furan-2-ylmethyl)-ao]-methyl}-phenoxy)-hexahydro-furo[3,2-b]furan-3-yl]-urea; trifluoroacetate]	220
O=C(N[C@H]1CO[C@H]2[C@@H]1OC[C@@H]2Oc1ccc(F)cc1)NC1(c2cccs2)CCOCC1 [Example 169, 1-[(3S,3aR,6S,6aS)-6-(4-Fluoro-phenoxy)-hexahydro-furo[3,2-b]furan-3-yl]-3-(4-thiophen-2-yl-tetrahydro-pyran-4-yl)-urea]	4460
Cc1ncccc1O[C@H]1CO[C@H]2[C@@H]1OC[C@@H]2NC(=O)NC1CCCOC1 (stereo partly drawn) [Example 221, 1-[(3S,3aR,6S,6aS)-6-(2-Methyl-pyridin-3-yloxy)-hexahydro-furo[3,2-b]furan-3-yl]-3-(tetrahydro-pyran-3-yl)-urea]	96
O=C(NC1CCCCC1)N[C@H]1CO[C@H]2[C@@H]1OC[C@@H]2Oc1cccc(Cl)c1 [Example 132, 1-[(3S,3aR,6S,6aS)-6-(3-Chloro-phenoxy)-hexahydro-furo[3,2-b]furan-3-yl]-3-cyclohexyl-urea]	2
O=C(NC1CCOCC1)N[C@H]1CO[C@H]2[C@@H]1OC[C@@H]2Oc1ccc(F)cc1 [Example 170, 1-[(3S,3aR,6S,6aS)-6-(4-Fluoro-phenoxy)-hexahydro-furo[3,2-b]furan-3-yl]-3-(tetrahydro-pyran-4-yl)-urea]	103
O=C(NC1CCCCC1)N[C@H]1CO[C@H]2[C@@H]1OC[C@@H]2Oc1ccc(N2CCC(F)(F)CC2)nc1 [Example 71, 1-Cyclohexyl-3-[(3S,3aR,6S,6aS)-6-(4,4-difluoro-3,4,5,6-tetrahydro-2H-[1,2′]bipyridinyl-5′-yloxy)-hexahydro-furo[3,2-b]furan-3-yl]-urea]	7
Cc1ncccc1O[C@H]1CO[C@H]2[C@@H]1OC[C@@H]2NC(=O)NC1CCOC(C)C1 (stereo partly drawn) [Example 91, 1-[(3S,3aR,6S,6aS)-6-(2-methyl-pyridin-3-yloxy)-hexahydro-furo[3,2-b]furan-3-yl]-3-(2-methyl-tetrahydro-pyran-4-yl)-urea]	22
Cc1ncccc1O[C@H]1CO[C@H]2[C@@H]1OC[C@@H]2NC(=O)NC(C)(C)CN1CCOCC1 [Example 197, 1-(1,1-Dimethyl-2-morpholin-4-yl-ethyl)-3-[(3S,3aR,6S,6aS)-6-(2-methyl-pyridin-3-yloxy)-hexahydro-furo[3,2-b]furan-3-yl]-urea]	1140
